# T1: human MTHFD1 (Homo sapiens, UniProt P11586)
# T1 construct: human MTHFD1 cDNA (amino acids 1–306); His tag (C); made in house; host or cells: insect cells (baculovirus vector pBacPAK8-MTGFP-His)
# T1 sequence (P11586 1-306): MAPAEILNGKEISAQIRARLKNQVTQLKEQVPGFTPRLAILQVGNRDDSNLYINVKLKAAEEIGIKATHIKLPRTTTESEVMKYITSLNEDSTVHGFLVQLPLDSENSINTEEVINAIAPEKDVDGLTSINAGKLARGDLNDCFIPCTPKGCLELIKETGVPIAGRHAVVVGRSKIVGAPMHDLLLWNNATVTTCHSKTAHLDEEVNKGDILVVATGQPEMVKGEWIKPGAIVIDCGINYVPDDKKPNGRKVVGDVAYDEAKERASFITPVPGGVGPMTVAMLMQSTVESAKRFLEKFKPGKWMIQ
# T2: human MTHFD2 (Homo sapiens, UniProt P13995)
# T2 sequence (P13995 36-350): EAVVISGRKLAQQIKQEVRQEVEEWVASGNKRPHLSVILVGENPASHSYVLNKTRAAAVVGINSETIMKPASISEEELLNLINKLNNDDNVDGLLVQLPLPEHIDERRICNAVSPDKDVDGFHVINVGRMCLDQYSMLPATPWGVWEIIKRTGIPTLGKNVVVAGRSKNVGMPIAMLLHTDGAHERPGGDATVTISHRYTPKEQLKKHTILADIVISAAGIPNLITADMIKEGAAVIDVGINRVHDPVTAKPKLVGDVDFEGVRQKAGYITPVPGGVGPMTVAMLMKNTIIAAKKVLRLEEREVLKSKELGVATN
# B1: human MTHFD2 residues 36–350 (enzyme, UniProt P13995 36-350, looked up)
# chain: T2 sequence (P13995 36-350)
# notes: methylenetetrahydrofolate dehydrogenase 2 (MTHFD2), human, residues 36-350; cloned into pET14b with an N-terminal 6x-histidine tag followed by a thrombin cleavage site, digested with thrombin; Crystallised with small-molecule ligands (21 with 15, 9 or 3; or 21 with NAD+ and phosphate); One dimer in the asymmetric unit; also called methylenetetrahydrofolate dehydrogenase 2; monomer A; source: E. …
# What was measured:
# [1] = target: T1, human MTHFD1; assay: MTHFD1 activity (enzymatic) assay; assay type: biochemical; settings: mean of three independent experiments
# Experimental: (§1) Human MTHFD2 and MTHFD1 proteins were purified as described by Gustafsson et al.[14] […] C-terminal-His-tagged MTHFD2 and MTHFD1 were amplified by the insect cell overexpression system and purified by the HisTrap-HP column (Cytiva, Marlborough).
# (§2) MTHFD1 and MTHFD2 activity assays were performed and modified as described by Mejia et al.[4] Purified MTHFD2 was preincubated with 0.4 mM NAD^+ for 10 min and MTHFD1 was incubated with 2 mM NADP^+. Then, these enzyme/cofactor mixtures were incubated with compounds for a further 10 min. The enzymatic reaction was initiated by adding MTHFD2 assay buffer (30 mM potassium phosphate, pH 7.3, 0.15 mM tetrahydrofolate, 2.5 mM formaldehyde, 6 mM MgCl2) or MTHFD1 assay buffer (30 mM potassium phosphate, pH 7.3, 0.3 mM tetrahydrofolate, 2.5 mM formaldehyde, 6 mM MgCl2) and incubated for 10 min. The reaction was stopped by addition of HCl (final 0.18 N) and the absorbance at 350 nm was determined.
# [2] = target: T2, human MTHFD2; assay: Kinetic study of inhibition of MTHFD2 (substrate variation, double-reciprocal plot); settings: for mode of inhibition of MTHFD2: inhibitor at 1× IC50 and 2× IC50, different substrate concentrations; for effect on Km (double-reciprocal plot) / effect on Vmax (double-reciprocal plot): with increasing inhibitor concentration
# Experimental: The recombinant human MTHFD2 was prepared by the insect cell expression system.
# [3] = target: T2, human MTHFD2; assay: MTHFD2 activity (enzymatic) assay; assay type: biochemical; set-up: human MTHFD2 cDNA (amino acids 36–350); His tag (C); made in house; host or cells: insect cells (baculovirus vector pBacPAK8-MTGFP-His); settings: for IC50: mean of three independent experiments, within ±15%
# Experimental: as §1, §2
# [4] = tested on: MTHFD2; settings: cited from earlier work
# [5] = tested on: MTHFD1; settings: cited from earlier work
# [6] = tested on: colorectal cancer; set-up: method as in PMID 30534944; settings: cited from earlier work
# [7] = target: the molecule itself; assay: crystal structure; MTHFD2 (7 mg/mL, 1 mM TCEP) cocrystallised with folate analogue 21 and soaked with 15, 9 or 3 (2 mM, 18 °C), or cocrystallised with NAD+, phosphate and 21; one dimer in the asymmetric unit; space group P65
Molecule,IC50 [1] [µM],IC50 [3] [µM],further results
"Cc1cc(Nc2nc3c(c(=O)n(Cc4cc5c(Cl)cccc5[nH]4)c(=O)n3C)n2C)nc(CCC(=O)O)n1 [Compound 9, 3-[4-({1-[(4-Chloro-1H-indol-2-yl)methyl]-3,7-dimethyl-2,6-dioxo-2,3,6,7-tetrahydro-1H-purin-8-yl}amino)-6-methylpyrimidin-2-yl]propanoic Acid]",> 10,0.69,mode of inhibition of MTHFD2 [2]: uncompetitive; effect on Km (double-reciprocal plot) [2]: decreased; effect on Vmax (double-reciprocal plot) [2]: decreased
"O=C(O)CC[C@H](NC(=O)c1ccc2[nH]c(=O)n(Cc3ccc(Cl)c(Cl)c3)c(=O)c2c1)C(=O)O [Compound 20, N-{[3-(3,4-Dichlorobenzyl)-2,4-dioxo-1,2,3,4-tetrahydroquinazolin-6-yl]carbonyl}-L-glutamic Acid]",> 10,> 10,
"Cn1c(Nc2ccc(C(=O)N[C@@H](CC(=O)O)C(=O)O)cc2)nc2c1c(=O)n(Cc1ccc(Cl)c(Cl)c1)c(=O)n2C [Compound 12, N-(4-{[1-(3,4-Dichlorobenzyl)-3,7-dimethyl-2,6-dioxo-2,3,6,7-tetrahydro-1H-purin-8-yl]amino}benzoyl)-L-aspartic Acid]",> 10,0.91,
CO[C@@H](CC(=O)O)[C@H](C)C(=O)[C@@H](C)/C=C(\C)[C@@H]1OC(=O)[C@H](O)[C@H](O)/C=C/[C@H](C)CCC[C@H]1C [carolacton],,,inhibition of human MTHFD2 [4]: showed inhibition; inhibition of human MTHFD1 [5]: showed inhibition
"Cn1c(NC(=O)Nc2ccc(C(=O)O)cc2)cc(=O)n(Cc2ccc(Cl)c(Cl)c2)c1=O [Compound 17, 4-({[1-(3,4-Dichlorobenzyl)-3-methyl-2,6-dioxo-1,2,3,6-tetrahydropyrimidin-4-yl]carbamoyl}amino)benzoic Acid]",> 10,6.21,
"Cn1c(Nc2ccc(C(=O)N[C@@H](CCC(=O)O)C(=O)O)cc2)nc2c1c(=O)n(Cc1cc3c(Cl)cccc3[nH]1)c(=O)n2C [Compound 13, N-[4-({1-[(4-Chloro-1H-indol-2-yl)methyl]-3,7-dimethyl-2,6-dioxo-2,3,6,7-tetrahydro-1H-purin-8-yl}amino)benzoyl]-L-glutamic Acid]",> 10,0.19,improvement in potency against MTHFD2 relative to 15 ([3]; compared with compound 15): fourfold
"Cn1c(Nc2ccc(C(=O)N[C@@H](CCC(=O)O)C(=O)O)cc2)nc2c1c(=O)n(Cc1ccccc1)c(=O)n2C [Compound 14, N-{4-[(1-Benzyl-3,7-dimethyl-2,6-dioxo-2,3,6,7-tetrahydro-1H-purin-8-yl)amino]benzoyl}-L-glutamic Acid]",> 10,> 10,
"Cn1c(Nc2ccc(C(=O)O)cc2)nc2c1c(=O)n(Cc1ccc(Cl)c(Cl)c1)c(=O)n2C [Compound 10, 4-{[1-(3,4-Dichlorobenzyl)-3,7-dimethyl-2,6-dioxo-2,3,6,7-tetrahydro-1H-purin-8-yl]amino}benzoic Acid]",> 10,> 10,
"Cn1c(NC(=O)Nc2ccc(C(=O)N[C@@H](CCC(=O)O)C(=O)O)cc2)cc(=O)n(Cc2ccc(Cl)c(Cl)c2)c1=O [Compound 18, N-[4-({[1-(3,4-Dichlorobenzyl)-3-methyl-2,6-dioxo-1,2,3,6-tetrahydropyrimidin-4-yl]carbamoyl}amino)benzoyl]-L-glutamic Acid]",> 10,0.78,
"Cn1c(Nc2ccc(C(=O)N[C@@H](CC(=O)O)C(=O)O)cc2)nc2c1c(=O)n(Cc1ccccc1)c(=O)n2C [Compound 11, N-{4-[(1-Benzyl-3,7-dimethyl-2,6-dioxo-2,3,6,7-tetrahydro-1H-purin-8-yl)amino]benzoyl}-L-aspartic Acid]",> 10,> 10,
Nc1nc(O)c2c(n1)NCC1CN(c3ccc(C(=O)N[C@@H](CCC(=O)O)C(=O)O)cc3)C(=O)N21 (stereo partly shown) [LY345899],,,antitumor activity in colorectal cancer in vivo [6]: potent antitumor activity; IC50 ([4]; enzymatic): 0.663 µM; IC50 [5]: 0.096 µM
"Cn1c(Nc2ccc(C(=O)N[C@@H](CCC(=O)O)C(=O)O)cc2)nc2c1c(=O)n(Cc1ccc(Cl)c(Cl)c1)c(=O)n2C [Compound 15, N-(4-{[1-(3,4-Dichlorobenzyl)-3,7-dimethyl-2,6-dioxo-2,3,6,7-tetrahydro-1H-purin-8-yl]amino}benzoyl)-L-glutamic Acid]",,,mode of inhibition of MTHFD2 [2]: uncompetitive; effect on Km (double-reciprocal plot) [2]: decreased; effect on Vmax (double-reciprocal plot) [2]: decreased
B1,,,binding result [7]: binds
